Reference: patent publication US7160992B2, “Amino-modified polysaccharides and methods of generating and using same” (Yeda Research and Development Co., Ltd., priority 2003, dated 2007)

Columns and labels:
HIV-1IIIB wild type = test: Inhibition of HIV-1IIIB wild type in MT2 or cMAGI cells; type: cell-based; details: HIV-1IIIB wt; mean and standard deviation of three separate experiments; read-out: EC50, Wild-type
Source text: The cMAGI assay is based on the ability of HIV-1 TAT to transactivate the expression of an integrated β-galactosidase reporter gene driven by the HIV-LTR [Chackerian, B. et al., 1997. J Virol. 71: 3932–3939; Collins, K. B. et al., 2000. Nat. Med. 6: 475–479]. The β-galactosidase reporter has been modified to remain localized in the nucleus where it can be detected with the X-gal substrate as an intense nuclear stain within a few days of infection. The X-gal substrate used was 5-bromo-4-chloro-3-indoyl-beta-D-galactopyranoside. HIV1IIIB was propagated by subculture in MT2 as described previously [Litovchick (2001) Supra]. Aliquots of cell-free culture supernatants were used as viral inoculum. […] The cytopathic effects of the viral infection of MT2 cells were analyzed by microscopic assessment of syncytium formation. These latter data were obtained by analysis of duplicate samples by two independent observers. HIV-1 infection of cMAGI cells was determined by counting the number of HIV-1 infected cells (stained blue).

HIV-1 isolates = test: Inhibition of HIV-1 infection (cMAGI reporter cells, MT2 syncytium formation); type: cell-based; details: up to 100 μM
Experimental: Aliquots of cell-free culture supernatants were used as viral inoculum. […] Cytotoxicity determinations were carried out in MT2 and H9 cells by trypan blue exclusion assay.
Viral inhibition was determined by incubating cMAGI HIV-1 reporter cells with 0.2–0.5 multiplicity of infection of HIV-1IIIB for 4 days at 37° C. in the presence or absence of various concentration of AACs, prior to counting the number of HIV-1 infected cells (stained blue). The cytopathic effects of the viral infection of MT2 cells were also analyzed by microscopic assessment of syncytium formation. These latter data were obtained by analysis of duplicate samples by two independent observers.

CXCR4 = target: T1, CXCR4 (Homo sapiens, UniProt P61073); test: Inhibition of anti-CXCR4 mAb 12G5 binding to cells, flow cytometry; type: cell-based; details: for inhibition of 12G5 mAb binding to CXCR4 (in words): 20 μM aminoglycoside antibiotic
T1 construct: endogenous in cells; host or cells: PM1 cells and PBMC
T1 sequence (P61073 whole entry): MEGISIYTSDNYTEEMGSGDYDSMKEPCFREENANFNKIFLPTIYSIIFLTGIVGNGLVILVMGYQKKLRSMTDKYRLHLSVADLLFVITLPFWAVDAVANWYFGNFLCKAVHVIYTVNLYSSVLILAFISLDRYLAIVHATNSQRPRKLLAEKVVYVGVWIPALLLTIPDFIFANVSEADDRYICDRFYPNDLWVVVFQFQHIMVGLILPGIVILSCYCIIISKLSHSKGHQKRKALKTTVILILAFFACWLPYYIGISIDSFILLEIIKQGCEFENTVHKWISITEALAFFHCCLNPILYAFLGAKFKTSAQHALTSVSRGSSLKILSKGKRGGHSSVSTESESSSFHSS
Experimental: FIGS. 11a–d are graphs depicting the binding of AACs to CXCR4 in the presence of anti CXCR4 antibody (12G5). PM1 cells were incubated with PE-conjugated isotype control mAb, PE-anti CXCR4 conjugated mAb (12G5) alone, or in the presence of the indicated AACs for 30 min at 4° C. The cells were then washed twice with PBS and analyzed by flow cytometry. The MFI values are shown in parenthesis.
Interaction of AACs with CXCR4 was determined by flow cytometry (FACScan, Becton Dickinson) as described recently (Litovchick et al., 2001, supra). Briefly, 0.5×10^6 cells were washed in ice-cold PBS containing 0.1% sodium azide (wash buffer) and incubated at 4° C. with anti-CXCR4 mAb, 12G5 (PharMingen, San Diego, Calif.) conjugated to phycoerithrine (PE), in the absence or presence of different concentrations of the AACs. After 30 min of incubation, the cells were washed with ice-cold wash buffer and fixed in PBS containing 1% paraformaldehyde. Non-specific fluorescence was assessed by using isotype-matched control. For each sample 10,000 events were acquired. Data were analyzed and processed using CellQuest™ software (Becton Dickinson).

RRE IIB [1] = test: Fluorescence anisotropy of aminoglycoside binding to RRE IIB, fluorescein-Rev34-50 tracer (literature); set-up: species or system HIV-1
RRE IIB [2] = details: fluorescein-Rev34-50 as fluorescent tracer; read-out: KD of aminoglycoside binding to RRE IIB; cited from earlier work
TAR RNA = test: Fluorescence anisotropy: RhdRev binding and AAC competition for TAR RNA; set-up: species or system HIV-1
RRE IIB RNA = test: Fluorescence anisotropy: RhdRev binding and AAC competition for RRE IIB RNA; set-up: species or system HIV-1
MT-2 cells = test: Cellular uptake competition of AACs with NeoR6-FITC, flow cytometry; type: cell-based; details: 100 fold excess of non-labeled AAC
Experimental: Following 15 minutes of incubation at room temperature, the cells were washed twice with ice-cold PBS and fixed in PBS containing 1% paraformaldehyde. Fluorescence was analyzed using flow cytometry.
After 5 or 15 min of incubation at room temperature, the cells were washed twice with ice-cold PBS and fixed in PBS containing 1% paraformaldehyde. The fluorescence was then analyzed by flow cytometry (FACScan, Becton Dickinson Imunocytometry Systems, San Jose, Calif., USA). For each sample 10,000 events were acquired. Data were analyzed and processed.

**Q.** With `Nc1ccn([C@H]2CC[C@@H](CO)O2)c(=O)n1` [ddC, Dideoxycytosine, reference compound] as the compound, how does the EC50 (HIV-1IIIB wild type) read?
**A.** 300 ± 100 nM

**Q.** With `NC[C@H]1O[C@H](O[C@H]2[C@H](O)[C@@H](O)[C@H](N)C[C@@H]2N)[C@H](N)[C@@H](O)[C@@H]1O` [neamine, reference compound] as the compound, how does the “antiviral activity (in words)” value (HIV-1 isolates) read?
**A.** did not reveal antiviral activity

**Q.** What about the “inhibition of 12G5 mAb binding to CXCR4 (in words)” value (CXCR4) of the same compound?
**A.** did not inhibit

**Q.** Which results are given for `NC[C@@H]1O[C@H](O[C@H]2[C@@H](O)[C@H](O[C@@H]3[C@@H](O)[C@H](N)C[C@H](N)[C@H]3O[C@H]3O[C@H](CN)[C@@H](O)[C@H](O)[C@H]3N)O[C@@H]2CO)[C@H](N)[C@@H](O)[C@@H]1O` [neomycin, neomycin B]?
**A.** antiviral activity (in words) (HIV-1 isolates): did not reveal antiviral activity; inhibition of 12G5 mAb binding to CXCR4 (in words) (CXCR4): did not inhibit; times weaker than NeoR1 binding to RRE IIB (RRE IIB [1]; comparator NeoR1): 6; times weaker than NeoR2 binding to RRE IIB (RRE IIB [1]; comparator NeoR2): 7; times weaker than NeoR6 binding to RRE IIB (RRE IIB [1]; comparator NeoR6): ~550; Kd (RRE IIB [2]): 1180 nM

**Q.** For `NC[C@@H]1O[C@H](O[C@H]2[C@@H](O)[C@H](O[C@@H]3[C@@H](O)[C@H](N)C[C@H](N)[C@H]3O[C@H]3O[C@H](CO)[C@@H](O)[C@H](O)[C@H]3N)O[C@@H]2CO)[C@H](N)[C@@H](O)[C@@H]1O` [paromomycin, reference compound], which “antiviral activity (in words)” value (HIV-1 isolates) is on record?
**A.** did not reveal antiviral activity

**Q.** And the “inhibition of 12G5 mAb binding to CXCR4 (in words)” value (CXCR4)?
**A.** did not inhibit

**Q.** Which results are given for “argininamido-neomycin B conjugate [NeoR1]”?
**A.** Kd (TAR RNA; competition of AACs with RhdRev (10 nM) for TAR RNA (20 nM) binding, 85 mM NaCl): > 500 nM; IC50 (TAR RNA; competition of AACs with RhdRev for TAR RNA binding): > 500 nM; Kd (RRE IIB RNA; competition of AACs with RhdRev (10 nM) for RRE IIB RNA (20 nM) binding, 85 mM NaCl): 200 ± 5.9 nM; IC50 (RRE IIB RNA; competition of AACs with RhdRev for RRE IIB RNA binding): 353 ± 31.9 nM; reduction of 12G5 mAb binding to the cells (CXCR4; 10 μM AAC, PM1 cells, 30 min at 4° C.): 50%; inhibition of mAb 12G5 or SDF-1α binding to CXCR4, % of the NeoR6 activity (CXCR4; in comparison to NeoR6): 55%; competition with NeoR6-FITC uptake (in words) (MT-2 cells): did not compete

**Q.** For gentamicin, which “antiviral activity (in words)” value (HIV-1 isolates) is on record?
**A.** did not reveal antiviral activity
